{
  "source": "paper PMC4051601",
  "about": "“Identification of NAD(P)H Quinone Oxidoreductase Activity in Azoreductases from P. aeruginosa: Azoreductases and NAD(P)H Quinone Oxidoreductases Belong to the Same FMN-Dependent Superfamily of Enzymes” (PLoS ONE, 2014)",
  "key": {"paAzoR1 (PA0785) [1]": {"molecular_target": "T1, paAzoR1 (PA0785) (Pseudomonas aeruginosa, UniProt Q9I5F3)", "T1 construct": "gene azoR1; pure recombinant protein, expressed and purified as described previously; dimer with FMN", "T1 sequence (Q9I5F3 1-212)": "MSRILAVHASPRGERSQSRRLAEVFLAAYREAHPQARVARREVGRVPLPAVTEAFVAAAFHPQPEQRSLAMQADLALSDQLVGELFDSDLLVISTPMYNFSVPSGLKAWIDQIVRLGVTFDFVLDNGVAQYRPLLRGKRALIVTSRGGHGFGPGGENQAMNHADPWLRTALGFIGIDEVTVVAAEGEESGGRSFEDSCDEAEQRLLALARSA", "assay": "X-ray crystallography, […] A", "assay_type": "binding"}, "paAzoR1 (PA0785) [2]": {"molecular_target": "T1, paAzoR1 (PA0785)", "assay": "NADPH oxidation at […] nm", "assay_type": "biochemical", "settings": "50 uM quinone, 500 uM NADPH, 20 mM Tris-HCl pH 8, 100 mM NaCl, 5% DMSO; only a specific rate given"}, "paAzoR3 (PA3223)": {"molecular_target": "T2, paAzoR3 (PA3223) (Pseudomonas aeruginosa, UniProt Q9HZ17)", "T2 construct": "gene azoR3; pure recombinant protein, expressed and purified as described previously", "T2 sequence (Q9HZ17 1-213)": "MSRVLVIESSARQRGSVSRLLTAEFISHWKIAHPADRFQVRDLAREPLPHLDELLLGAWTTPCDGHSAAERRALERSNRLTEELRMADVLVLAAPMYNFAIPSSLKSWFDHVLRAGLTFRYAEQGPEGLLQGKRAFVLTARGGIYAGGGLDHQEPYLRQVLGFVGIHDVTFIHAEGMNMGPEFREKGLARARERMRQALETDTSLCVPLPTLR", "assay": "NADH oxidation at […] nm", "assay_type": "biochemical", "settings": "50 uM quinone, 500 uM NADH, 20 mM Tris-HCl pH 8, 100 mM NaCl, 5% DMSO; only a specific rate given"}, "paAzoR1 (PA0785) [3]": {"molecular_target": "T1, paAzoR1 (PA0785)", "assay": "X-ray crystallography, […] A", "assay_type": "binding", "settings": "FMN-bound enzyme; one of two active sites; occupancy 0.5; hydrogen bond to Tyr131; co-crystallised with 2 mM ligand, pH 8"}},
  "data": [
    {"compound": "O=C1c2ccccc2C(=O)c2cc(S(=O)(=O)O)ccc21", "note": "[AQN, anthraquinone-2-sulphonate]", "values": [
      {"measurement": "X-ray crystallography, 1.8 A", "setting": "paAzoR1 (PA0785) [1]; FMN-bound enzyme, one of two active sites, pi-stacking on FMN, co-crystallised with 2 mM ligand, pH 8", "result": "structures of paAzoR1 bound to two quinone substrates (UQ1 and AQN) have been solved"}
    ]},
    {"compound": "O=C1C=CC(=O)C=C1", "note": "[Bzq, Benzoquinone]", "values": [
      {"measurement": "NADPH oxidation at 340 nm", "setting": "paAzoR1 (PA0785) [2]", "result": "paAzoR1 has a preference for benzoquinones e.g. Bzq (Fig. 3a)"}
    ]},
    {"compound": "Cc1cc2nc3c(=O)[nH]c(=O)nc-3n(C[C@H](O)[C@H](O)[C@H](O)COP(=O)(O)O)c2cc1C", "note": "[FMN]", "values": [
      {"measurement": "X-ray crystallography, 1.8 A", "setting": "paAzoR1 (PA0785) [1]; structure with AQN, FMN also seen in the UQ1 complex (4N9Q)", "result": "AQN also forms π-π stacking interactions with the central ring of FMN"}
    ]},
    {"compound": "CC1=CC(=O)c2c(O)cccc2C1=O", "note": "[Plu, Plumbagin]", "values": [
      {"measurement": "NADH oxidation at 340 nm", "setting": "paAzoR3 (PA3223)", "result": "paAzoR3 prefers naphthoquinones e.g. Plu (Fig. 3c)"}
    ]},
    {"compound": "COC1=C(OC)C(=O)C(CC=C(C)C)=C(C)C1=O", "note": "[UQ1, Coenzyme Q1]", "values": [
      {"measurement": "X-ray crystallography, 2.0 A", "setting": "paAzoR1 (PA0785) [3]", "result": "structures of paAzoR1 bound to two quinone substrates (UQ1 and AQN) have been solved"}
    ]}
  ]
}
